Results: publication PMC7531004, “Discovery of gramicidin A analogues with altered activities by multidimensional screening of a one-bead-one-compound library” (Nature Communications, 2020)
Where a SMILES comes first, the peptide text is derived from it. [ ]: non-standard residue; d: D form. The star is where a group is joined. NHCH2CH2OH = OCCN*; For = O=C*

Key:
[1] = H+/Na+ transport assay of bead-derived peptides (one-point); assay type: biochemical; set-up: key: relative activity; mean of two control wells = 1.00; conditions: bead-derived peptide solution, EYPC/EYPG LUVs;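 note: relative to parent gramicidin A activity set to 1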
How it was run: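 Pyranine (1.0 mM)-loaded LUVs containing egg yolk phosphatidylglycerol were prepared by film hydration, sonication and extrusion, then mixed with diluted bead-derived peptide in 96-well format and vortexed 30 min at room temperature. Fluorescence was normalized between untreated LUVs (0%) and Triton X-100 lysis (100%).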

[2] = cell viability/%
How it was run: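 First, library peptide stocks are diluted 250-fold in RPMI1640 with 10% heat-inactivated FBS. Next, they are mixed with P388 cells to give 1 × 10^4 cells/mL and incubated 92 h at 37 °C, 5% CO2. Finally, viability (%) is scored by WST-1 absorbance at 415 nm.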

[3] = system: Streptococcus pyogenes SSI-9; experiment: Antibacterial activity assay of bead-derived peptides (three concentrations); assay type: cell-based; set-up: key: +++: inhibition by the 640-fold diluted peptide solution; ++: inhibition by the 160-fold diluted solution; +: inhibition by the 40-fold diluted solution; -: no inhibition; conditions: S. pyogenes, bead-derived peptide solution, three concentrations
How it was run: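 Bead-derived library peptide stocks in DMSO were tested undiluted and after 4- and 16-fold DMSO dilution against S. pyogenes SSI-9 (2 × 10^5 CFU/well) in cation-adjusted Mueller Hinton Broth with 5% laked horse blood. After 18 h at 37 °C, wells were scored for precipitation of grown cells.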

Row | Structure (SMILES) | H+/Na+ transport activity normalized against the value of 1 (1.00) [1] | viability [2] | antibacterial activity [3]
1 | CNC(=O)C[C@@H](NC(=O)[C@H](C)NC(=O)[C@@H](CC(C)C)NC(=O)[C@H](C)NC(=O)CNC(=O)[C@@H](NC=O)C(C)C)C(=O)N[C@H](C(=O)N[C@@H](C(=O)N[C@@H](Cc1c[nH]c2ccccc12)C(=O)N[C@H](CC(C)C)C(=O)N[C@@H](Cc1c[nH]c2ccccc12)C(=O)N[C@@H](C(=O)N[C@@H](Cc1c[nH]c2ccccc12)C(=O)N[C@@H](C(=O)N[C@@H](Cc1c[nH]c2ccccc12)C(=O)NCCO)C(C)C)C(C)C)C(C)C)C(C)C [compound 11290] (For-VGA[dL]A[dD](NHMe)V[dV]W[dL]W[dV]W[dV]W-NHCH2CH2OH) | 1.47 | 87.6% | -
2 | CNC(=O)C[C@@H](NC(=O)[C@@H](NC(=O)[C@H](NC(=O)[C@H](C)NC(=O)[C@@H](CC(C)C)NC(=O)[C@H](C)NC(=O)CNC(=O)[C@@H](NC=O)C(C)C)C(C)C)C(C)C)C(=O)N[C@@H](Cc1c[nH]c2ccccc12)C(=O)N[C@H](CC(C)C)C(=O)N[C@@H](Cc1c[nH]c2ccccc12)C(=O)N[C@H](CC(C)C)C(=O)N[C@@H](Cc1c[nH]c2ccccc12)C(=O)N[C@H](CC(C)C)C(=O)N[C@@H](Cc1c[nH]c2ccccc12)C(=O)NCCO [compound 4143] (For-VGA[dL]A[dV]V[dD](NHMe)W[dL]W[dL]W[dL]W-NHCH2CH2OH) | 1.22 | 100% | -
3 | CNC(=O)C[C@@H](NC(=O)[C@H](Cc1c[nH]c2ccccc12)NC(=O)[C@@H](CC(C)C)NC(=O)[C@H](Cc1c[nH]c2ccccc12)NC(=O)[C@@H](CC(C)C)NC(=O)[C@@H](NC(=O)[C@H](NC(=O)[C@H](C)NC(=O)[C@H](NC(=O)[C@H](C)NC(=O)CNC(=O)[C@@H](NC=O)C(C)C)C(C)C)C(C)C)C(C)C)C(=O)N[C@@H](Cc1c[nH]c2ccccc12)C(=O)N[C@H](CC(C)C)C(=O)N[C@@H](Cc1c[nH]c2ccccc12)C(=O)NCCO [compound 4203] (For-VGA[dV]A[dV]V[dL]W[dL]W[dD](NHMe)W[dL]W-NHCH2CH2OH) | 1.16 | 100% | -
4 | CC(C)C[C@@H](NC(=O)[C@H](C)NC(=O)CNC(=O)[C@@H](NC=O)C(C)C)C(=O)N[C@@H](C)C(=O)N[C@H](CC(C)C)C(=O)N[C@H](C(=O)N[C@@H](C(=O)N[C@@H](Cc1c[nH]c2ccccc12)C(=O)N[C@H](CC(C)C)C(=O)N[C@@H](Cc1c[nH]c2ccccc12)C(=O)N[C@@H](C(=O)N[C@@H](Cc1c[nH]c2ccccc12)C(=O)N[C@H](CC(C)C)C(=O)N[C@@H](Cc1c[nH]c2ccccc12)C(=O)NCCO)C(C)C)[C@H](C)O)C(C)C [compound 8604] (For-VGA[dL]A[dL]V[dT]W[dL]W[dV]W[dL]W-NHCH2CH2OH) | 1.08 | 54.4% | -
5 | CC(C)C[C@@H](NC(=O)[C@H](Cc1c[nH]c2ccccc12)NC(=O)[C@@H](CC(C)C)NC(=O)[C@@H](NC(=O)[C@H](NC(=O)[C@H](C)NC(=O)[C@H](NC(=O)[C@H](C)NC(=O)CNC(=O)[C@@H](NC=O)C(C)C)C(C)C)[C@H](C)O)C(C)C)C(=O)N[C@@H](Cc1c[nH]c2ccccc12)C(=O)N[C@H](CC(C)C)C(=O)N[C@@H](Cc1c[nH]c2ccccc12)C(=O)N[C@@H](C(=O)N[C@@H](Cc1c[nH]c2ccccc12)C(=O)NCCO)C(C)C [compound 2495] (For-VGA[dV]A[dT]V[dL]W[dL]W[dL]W[dV]W-NHCH2CH2OH) | 1.22 | 100% | -
6 | CNC(=O)C[C@@H](NC(=O)[C@H](Cc1c[nH]c2ccccc12)NC(=O)[C@@H](CC(C)C)NC(=O)[C@H](Cc1c[nH]c2ccccc12)NC(=O)[C@@H](CC(C)C)NC(=O)[C@H](Cc1c[nH]c2ccccc12)NC(=O)[C@@H](CC(C)C)NC(=O)[C@@H](NC(=O)[C@@H](CC(C)C)NC(=O)[C@H](C)NC(=O)[C@@H](CC(C)C)NC(=O)[C@H](C)NC(=O)CNC(=O)[C@@H](NC=O)C(C)C)C(C)C)C(=O)N[C@@H](Cc1c[nH]c2ccccc12)C(=O)NCCO [compound 300] (For-VGA[dL]A[dL]V[dL]W[dL]W[dL]W[dD](NHMe)W-NHCH2CH2OH) | 1.00 | 100% | -
7 | CC(C)C[C@@H](NC(=O)[C@H](C)NC(=O)[C@H](NC(=O)[C@H](C)NC(=O)CNC(=O)[C@@H](NC=O)C(C)C)C(C)C)C(=O)N[C@H](C(=O)N[C@@H](C(=O)N[C@@H](Cc1c[nH]c2ccccc12)C(=O)N[C@@H](C(=O)N[C@@H](Cc1c[nH]c2ccccc12)C(=O)N[C@@H](C(=O)N[C@@H](Cc1c[nH]c2ccccc12)C(=O)N[C@@H](C(=O)N[C@@H](Cc1c[nH]c2ccccc12)C(=O)NCCO)C(C)C)C(C)C)C(C)C)C(C)C)C(C)C [compound 7690] (For-VGA[dV]A[dL]V[dV]W[dV]W[dV]W[dV]W-NHCH2CH2OH) | 1.03 | 100% | -
8 | CC(C)C[C@@H](NC(=O)[C@H](Cc1c[nH]c2ccccc12)NC(=O)[C@@H](CC(C)C)NC(=O)[C@H](Cc1c[nH]c2ccccc12)NC(=O)[C@H](NC(=O)[C@H](Cc1c[nH]c2ccccc12)NC(=O)[C@H](NC(=O)[C@@H](NC(=O)[C@H](NC(=O)[C@H](C)NC(=O)[C@H](NC(=O)[C@H](C)NC(=O)CNC(=O)[C@@H](NC=O)C(C)C)C(C)C)C(C)C)C(C)C)[C@H](C)O)[C@H](C)O)C(=O)N[C@@H](Cc1c[nH]c2ccccc12)C(=O)NCCO [compound 12293] (For-VGA[dV]A[dV]V[dT]W[dT]W[dL]W[dL]W-NHCH2CH2OH) | 1.00 | 100% | -
9 | CC(C)C[C@@H](NC(=O)[C@H](C)NC(=O)[C@H](NC(=O)[C@H](C)NC(=O)CNC(=O)[C@@H](NC=O)C(C)C)C(C)C)C(=O)N[C@H](C(=O)N[C@H](CC(C)C)C(=O)N[C@@H](Cc1c[nH]c2ccccc12)C(=O)N[C@@H](C(=O)N[C@@H](Cc1c[nH]c2ccccc12)C(=O)N[C@@H](C(=O)N[C@@H](Cc1c[nH]c2ccccc12)C(=O)N[C@@H](C(=O)N[C@@H](Cc1c[nH]c2ccccc12)C(=O)NCCO)C(C)C)C(C)C)[C@H](C)O)C(C)C [compound 8554] (For-VGA[dV]A[dL]V[dL]W[dT]W[dV]W[dV]W-NHCH2CH2OH) | 1.03 | 61.3% | -
10 | CNC(=O)C[C@@H](NC(=O)[C@@H](NC(=O)[C@H](NC(=O)[C@H](C)NC(=O)[C@H](NC(=O)[C@H](C)NC(=O)CNC(=O)[C@@H](NC=O)C(C)C)C(C)C)C(C)C)C(C)C)C(=O)N[C@@H](Cc1c[nH]c2ccccc12)C(=O)N[C@H](CC(C)C)C(=O)N[C@@H](Cc1c[nH]c2ccccc12)C(=O)N[C@@H](C(=O)N[C@@H](Cc1c[nH]c2ccccc12)C(=O)N[C@@H](C(=O)N[C@@H](Cc1c[nH]c2ccccc12)C(=O)NCCO)C(C)C)C(C)C [compound 5536] (For-VGA[dV]A[dV]V[dD](NHMe)W[dL]W[dV]W[dV]W-NHCH2CH2OH) | 1.45 | 100% | -
11 | CC(C)C[C@@H](NC(=O)[C@@H](NC(=O)[C@H](NC(=O)[C@H](C)NC(=O)[C@H](NC(=O)[C@H](C)NC(=O)CNC(=O)[C@@H](NC=O)C(C)C)C(C)C)C(C)C)C(C)C)C(=O)N[C@@H](Cc1c[nH]c2ccccc12)C(=O)N[C@@H](C(=O)N[C@@H](Cc1c[nH]c2ccccc12)C(=O)N[C@@H](C(=O)N[C@@H](Cc1c[nH]c2ccccc12)C(=O)N[C@@H](C(=O)N[C@@H](Cc1c[nH]c2ccccc12)C(=O)NCCO)C(C)C)C(C)C)C(C)C [compound 885] (For-VGA[dV]A[dV]V[dL]W[dV]W[dV]W[dV]W-NHCH2CH2OH) | 1.03 | 93.4% | -
12 | CC(C)C[C@@H](NC(=O)[C@H](C)NC(=O)CNC(=O)[C@@H](NC=O)C(C)C)C(=O)N[C@@H](C)C(=O)N[C@@H](C(=O)N[C@H](C(=O)N[C@@H](C(=O)N[C@@H](Cc1c[nH]c2ccccc12)C(=O)N[C@H](CC(C)C)C(=O)N[C@@H](Cc1c[nH]c2ccccc12)C(=O)N[C@H](CC(C)C)C(=O)N[C@@H](Cc1c[nH]c2ccccc12)C(=O)N[C@@H](C(=O)N[C@@H](Cc1c[nH]c2ccccc12)C(=O)NCCO)C(C)C)[C@H](C)O)C(C)C)C(C)C [compound 200] (For-VGA[dL]A[dV]V[dT]W[dL]W[dL]W[dV]W-NHCH2CH2OH) | 1.04 | 100% | +
13 | CNC(=O)C[C@@H](NC(=O)[C@@H](NC(=O)[C@H](NC(=O)[C@H](C)NC(=O)[C@@H](CC(C)C)NC(=O)[C@H](C)NC(=O)CNC(=O)[C@@H](NC=O)C(C)C)C(C)C)C(C)C)C(=O)N[C@@H](Cc1c[nH]c2ccccc12)C(=O)N[C@@H](C(=O)N[C@@H](Cc1c[nH]c2ccccc12)C(=O)N[C@@H](C(=O)N[C@@H](Cc1c[nH]c2ccccc12)C(=O)N[C@H](CC(C)C)C(=O)N[C@@H](Cc1c[nH]c2ccccc12)C(=O)NCCO)C(C)C)C(C)C [compound 3596] (For-VGA[dL]A[dV]V[dD](NHMe)W[dV]W[dV]W[dL]W-NHCH2CH2OH) | 1.06 | 100% | -
